Measured values reported in the supplement of paper PMC13207355.

Assays:
Conditions in all cases: exposure time: 72 h
FT3469 [1] = normal neural stem cell line; test: surviving fraction (nuclei count normalised to DMSO); higher = more cells surviving (less toxic)
E13 [2] = patient-derived glioblastoma stem cells of classical subtype; test: as above
E28 [3] = patient-derived glioblastoma stem cells of classical subtype; test: as above
E57 [4] = patient-derived glioblastoma stem cells of mesenchymal subtype; test: as above
E34 [5] = patient-derived glioblastoma stem cells of proneural subtype; test: as above
E21 [6] = patient-derived glioblastoma stem cells of mesenchymal subtype; test: as above
E31 [7] = patient-derived glioblastoma stem cells of proneural subtype; test: as above
FT3469 [8] = test: phenotypic distance (Euclidean, principal components) from DMSO controls (arbitrary units); higher = stronger morphological change
E13 [9] = test: as above
E28 [10] = test: as above
E57 [11] = test: as above
E34 [12] = test: as above
E21 [13] = test: as above
E31 [14] = test: as above
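Wherever phenotypic distance (Euclidean, principal components) from DMSO controls is given: cell Painting imaging in 384-well plates, CellProfiler features reduced to at least 20 principal components, Euclidean distance versus same-plate DMSO vehicle wells (0.1% v/v), median over six images per well.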
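Wherever surviving fraction (nuclei count normalised to DMSO) is given: nuclei counted by high-content imaging of Hoechst-stained cells in laminin-coated 384-well plates, relative to 0.1% DMSO vehicle wells, with staurosporine as cell-death control.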

Cc1[nH]nc(C(F)(F)F)c1Cc1sc2c(c1C(=O)N1C[C@](C)(O)CO1)c(=O)n(C)c(=O)n2C(C)C [AZD3965]
Conditions	phenotypic distance	surviving fraction
E13 [2], 4.1 nM	–	0.892
E13 [2], 4.11523 nM	–	0.874
E13 [2], 12.3 nM	–	0.878
E13 [2], 12.34567901 nM	–	0.853
E13 [2], 37 nM	–	0.902
E13 [2], 37.037 nM	–	0.888
E13 [2], 111.1 nM	–	0.875
E13 [2], 111.1111111 nM	–	0.852
E13 [2], 333.3 nM	–	0.798
E13 [2], 333.333 nM	–	0.795
E13 [2], 1000 nM	–	0.8872
E13 [2], 3000 nM	–	0.893
E13 [9], 4.1 nM	2.38	–
E13 [9], 4.11523 nM	3.36	–
E13 [9], 12.3 nM	1.38	–
E13 [9], 12.34567901 nM	1.25	–
E13 [9], 37 nM	1.12	–
E13 [9], 37.037 nM	1.28	–
E13 [9], 111.1 nM	1.14	–
E13 [9], 111.1111111 nM	1.42	–
E13 [9], 333.3 nM	1.61	–
E13 [9], 333.333 nM	1.44	–
E13 [9], 1000 nM	1.42	–
E13 [9], 3000 nM	1.49	–
E21 [6], 4.1 nM	–	0.918
E21 [6], 4.11523 nM	–	0.909
E21 [6], 12.3 nM	–	0.974
E21 [6], 12.34567901 nM	–	0.942
E21 [6], 37 nM	–	1.01
E21 [6], 37.037 nM	–	0.985
E21 [6], 111.1 nM	–	0.876
E21 [6], 111.1111111 nM	–	0.994
E21 [6], 333.3 nM	–	0.97
E21 [6], 333.333 nM	–	0.874
E21 [6], 1000 nM	–	0.975
E21 [6], 3000 nM	–	1.03
E21 [13], 4.1 nM	0.524	–
E21 [13], 4.11523 nM	0.56	–
E21 [13], 12.3 nM	0.38	–
E21 [13], 12.34567901 nM	0.473	–
E21 [13], 37 nM	0.579	–
E21 [13], 37.037 nM	0.608	–
E21 [13], 111.1 nM	3	–
E21 [13], 111.1111111 nM	0.601	–
E21 [13], 333.3 nM	0.814	–
E21 [13], 333.333 nM	0.596	–
E21 [13], 1000 nM	0.438	–
E21 [13], 3000 nM	0.509	–
E28 [3], 4.1 nM	–	0.719
E28 [3], 4.11523 nM	–	0.606
E28 [3], 12.3 nM	–	0.623
E28 [3], 12.34567901 nM	–	0.725
E28 [3], 37 nM	–	0.66
E28 [3], 37.037 nM	–	0.664
E28 [3], 111.1 nM	–	0.585
E28 [3], 111.1111111 nM	–	0.599
E28 [3], 333.3 nM	–	0.695
E28 [3], 333.333 nM	–	0.602
E28 [3], 1000 nM	–	0.645
E28 [3], 3000 nM	–	0.609
E28 [10], 4.1 nM	1.93	–
E28 [10], 4.11523 nM	2.44	–
E28 [10], 12.3 nM	2.03	–
E28 [10], 12.34567901 nM	2.3	–
E28 [10], 37 nM	2.12	–
E28 [10], 37.037 nM	2.05	–
E28 [10], 111.1 nM	2.52	–
E28 [10], 111.1111111 nM	2.75	–
E28 [10], 333.3 nM	2.16	–
E28 [10], 333.333 nM	1.86	–
E28 [10], 1000 nM	3.17	–
E28 [10], 3000 nM	2.52	–
E31 [7], 4.1 nM	–	1.02
E31 [7], 4.11523 nM	–	0.885
E31 [7], 12.3 nM	–	1.01
E31 [7], 12.34567901 nM	–	1.03
E31 [7], 37 nM	–	1.11
E31 [7], 37.037 nM	–	0.935
E31 [7], 111.1 nM	–	1.02
E31 [7], 111.1111111 nM	–	1.26
E31 [7], 333.3 nM	–	1.08
E31 [7], 333.333 nM	–	0.948
E31 [7], 1000 nM	–	1.06
E31 [7], 3000 nM	–	0.9527
E31 [14], 4.1 nM	1.24	–
E31 [14], 4.11523 nM	1.57	–
E31 [14], 12.3 nM	1.17	–
E31 [14], 12.34567901 nM	1.51	–
E31 [14], 37 nM	1.23	–
E31 [14], 37.037 nM	1.3	–
E31 [14], 111.1 nM	1.12	–
E31 [14], 111.1111111 nM	1.4	–
E31 [14], 333.3 nM	1.58	–
E31 [14], 333.333 nM	1.36	–
E31 [14], 1000 nM	1.41	–
E31 [14], 3000 nM	1.36	–
E34 [5], 4.1 nM	–	0.782
E34 [5], 4.11523 nM	–	0.704
E34 [5], 12.3 nM	–	0.677
E34 [5], 12.34567901 nM	–	0.748
E34 [5], 37 nM	–	0.775
E34 [5], 37.037 nM	–	0.724
E34 [5], 111.1 nM	–	0.71
E34 [5], 111.1111111 nM	–	0.849
E34 [5], 333.3 nM	–	0.713
E34 [5], 333.333 nM	–	0.686
E34 [5], 1000 nM	–	0.7
E34 [5], 3000 nM	–	0.718
E34 [12], 4.1 nM	1.15	–
E34 [12], 4.11523 nM	1.69	–
E34 [12], 12.3 nM	1.33	–
E34 [12], 12.34567901 nM	1.5	–
E34 [12], 37 nM	1.42	–
E34 [12], 37.037 nM	1.59	–
E34 [12], 111.1 nM	1.57	–
E34 [12], 111.1111111 nM	1.79	–
E34 [12], 333.3 nM	1.47	–
E34 [12], 333.333 nM	1.47	–
E34 [12], 1000 nM	1.21	–
E34 [12], 3000 nM	1.35	–
E57 [4], 4.1 nM	–	0.905
E57 [4], 4.11523 nM	–	0.97
E57 [4], 12.3 nM	–	0.959
E57 [4], 12.34567901 nM	–	0.899
E57 [4], 37 nM	–	0.94
E57 [4], 37.037 nM	–	0.871
E57 [4], 111.1 nM	–	0.932
E57 [4], 111.1111111 nM	–	0.96
E57 [4], 333.3 nM	–	0.917
E57 [4], 333.333 nM	–	0.898
E57 [4], 1000 nM	–	0.922
E57 [4], 3000 nM	–	0.917
E57 [11], 4.1 nM	1.39	–
E57 [11], 4.11523 nM	1.81	–
E57 [11], 12.3 nM	1.46	–
E57 [11], 12.34567901 nM	1.78	–
E57 [11], 37 nM	1.94	–
E57 [11], 37.037 nM	2.19	–
E57 [11], 111.1 nM	1.74	–
E57 [11], 111.1111111 nM	1.87	–
E57 [11], 333.3 nM	1.65	–
E57 [11], 333.333 nM	1.79	–
E57 [11], 1000 nM	1.74	–
E57 [11], 3000 nM	1.93	–
FT3469 [1], 4.1 nM	–	0.911
FT3469 [1], 4.11523 nM	–	0.788
FT3469 [1], 12.3 nM	–	0.929
FT3469 [1], 12.34567901 nM	–	0.932
FT3469 [1], 37 nM	–	0.838
FT3469 [1], 37.037 nM	–	0.903
FT3469 [1], 111.1 nM	–	0.873
FT3469 [1], 111.1111111 nM	–	1.07
FT3469 [1], 333.3 nM	–	1.05
FT3469 [1], 333.333 nM	–	0.841
FT3469 [1], 1000 nM	–	0.948
FT3469 [1], 3000 nM	–	0.899
FT3469 [8], 4.1 nM	2.64	–
FT3469 [8], 4.11523 nM	1.35	–
FT3469 [8], 12.3 nM	0.859	–
FT3469 [8], 12.34567901 nM	1.19	–
FT3469 [8], 37 nM	0.806	–
FT3469 [8], 37.037 nM	1.13	–
FT3469 [8], 111.1 nM	0.75	–
FT3469 [8], 111.1111111 nM	1.11	–
FT3469 [8], 333.3 nM	1.33	–
FT3469 [8], 333.333 nM	1.16	–
FT3469 [8], 1000 nM	0.712	–
FT3469 [8], 3000 nM	0.976	–
